{"source": "patent EP2929883A1", "about": "“Pyrazole derivatives as dihydroorotate dehydrogenase (DHODH) inhibitors” (INSTITUT PASTEUR, priority 2014, dated 2015)", "data": [{"test_system": "measles virus", "test": "microbe, parasite or virus in culture", "settings": "Measles morbillivirus, 24 h", "units": {"MIC50": "µM"}, "values": [{"compound": "Cc1ccc(-n2nc(OC(C)C)c(Oc3c(F)cccc3F)c2C)nn1", "note": "[example 12, 3-(4-(2,6-difluorophenoxy)-3-isopropoxy-5-methyl-1H-pyrazol-1-yl)-6-methylpyridazine]", "MIC50": "0.0005 to 0.05"}, {"compound": "CCOc1nn(-c2ncccc2F)c(C)c1Cc1ccccc1", "note": "[example 37, 2-(4-benzyl-3-ethoxy-5-methyl-1H-pyrazol-yl)-3-fluoropyridine]", "MIC50": "> 5"}, {"compound": "CCOc1cc(-c2ccc(OC)cc2)n(-c2ccccn2)n1", "note": "[example 145, 2-(3-ethoxy-5-(4-methoxyphenyl)-1H-pyrazol-1-yl)pyridine]", "MIC50": "> 5"}, {"compound": "CCc1cnc(-n2nc(OC(C)C)c(Oc3ccccc3F)c2C)nc1", "note": "[example 50, 5-ethyl-2-(4-(2-fluorophenoxy)-3-isopropoxy-5-methyl-1H-pyrazol-1-yl)pyrimidine]", "MIC50": "0.0005 to 0.05"}, {"compound": "CCOc1nn(-c2ncc(CC)c(Cc3ccccc3)n2)cc1I", "note": "[example 167, 4-benzyl-2-(3-ethoxy-4-iodo-1H-pyrazol-1-yl)-5-ethylpyrimidine]", "MIC50": "0.5 to 5"}, {"compound": "Cc1cnc(-n2nc(OC(C)C)c(Oc3c(F)cccc3F)c2C)nc1O", "note": "[example 116, 2-(4-(2,6-difluorophenoxy)-3-isopropoxy-5-methyl-1H-pyrazol-1-yl)-5-methylpyrimidin-4-ol]", "MIC50": "0.05 to 0.5"}, {"compound": "CC(C)Oc1nn(-c2ccc(C3CC3)cn2)cc1[S+]([O-])c1ccccc1", "note": "(centres unmarked) [example 181, 5-cyclopropyl-2-(3-isopropoxy-4-(phenylsulfinyl)-1H-pyrazol-1-yl)pyridine]", "MIC50": "0.5 to 5"}, {"compound": "CCOc1nn(-c2ncccn2)c(C)c1Cc1ccccc1", "note": "[example 123, 2-(4-benzyl-3-ethoxy-5-methyl-1H-pyrazol-1-yl)pyrimidine]", "MIC50": "0.5 to 5"}, {"compound": "Cc1c(Oc2c(F)cccc2F)c(OC(C)C)nn1-c1ccc(Cl)nn1", "note": "[example 15, 3-chloro-6-(4-(2,6-difluorophenoxy)-3-isopropoxy-5-methyl-1H-pyrazol-1-yl)pyridazine]", "MIC50": "0.05 to 0.5"}, {"compound": "CCc1cnc(-n2nc(OC(C)C)c(Oc3c(F)cccc3F)c2C)nc1O", "note": "[example 117, 2-(4-(2,6-difluorophenoxy)-3-isopropoxy-5-methyl-1H-pyrazol-1-yl)-5-ethylpyrimidin-4-ol]", "MIC50": "0.0005 to 0.05"}, {"compound": "CCOc1nn(-c2ccc(C3CC3)cn2)c(C)c1I", "note": "[example 108, 5-cyclopropyl-2-(3-ethoxy-4-iodo-5-methyl-1H-pyrazol-1-yl)pyridine]", "MIC50": "> 5"}, {"compound": "CCOc1nn(-c2ccccn2)c(C)c1-c1ccccc1Cl", "note": "[example 155, 2-(4-(2-chlorophenyl)-3-ethoxy-5-methyl-1H-pyrazol-1-yl)pyridine]", "MIC50": "> 5"}, {"compound": "CCOc1cc(Cc2ccccc2)n(-c2ccccn2)n1", "note": "[example 3, 2-(5-benzyl-3-ethoxy-1H-pyrazol-1-yl)pyridine]", "MIC50": "> 5"}, {"compound": "CCOc1nn(-c2ncc(CC)cn2)c(C)c1I", "note": "[example 106, 2-(3-ethoxy-4-iodo-5-methyl-1H-pyrazol-1-yl)-5-ethylpyrimidine]", "MIC50": "> 5"}, {"compound": "Cc1c(Cc2ccccc2)c(OC(C)C)nn1-c1ncc(C2CC2)cn1", "note": "[example 21, 2-(4-benzyl-3-isopropoxy-5-methyl-1H-pyrazol-1-yl)-5-cyclopropylpyrimidine]", "MIC50": "0.0005 to 0.05"}, {"compound": "CCOc1nn(-c2ncc(CC)cn2)c(C)c1Oc1cc(Cl)cc(Cl)c1", "note": "[example 79, 2-(4-(3,5-dichlorophenoxy)-3-ethoxy-5-methyl-1H-pyrazol-1-yl)-5-ethylpyrimidine]", "MIC50": "0.5 to 5"}, {"compound": "CCOc1nn(-c2ncc(C3CC3)cc2C#N)c(C)c1Cc1ccccc1", "note": "[example 36, 2-(4-benzyl-3-ethoxy-5-methyl-1H-pyrazol-1-yl)-5-cyclopropylnicotinonitrile]", "MIC50": "0.05 to 0.5"}, {"compound": "CC(C)Oc1nn(-c2ccc(C3CC3)cn2)c(Cl)c1Oc1ccccc1", "note": "[example 191, 2-(5-chloro-3-isopropoxy-4-phenoxy-1H-pyrazol-1-yl)-5-cyclopropylpyridine]", "MIC50": "0.05 to 0.5"}, {"compound": "CCOc1nn(-c2ncc(CC)cn2)c(C)c1Oc1cc(Cl)ccc1Cl", "note": "[example 64, 2-(4-(2,5-dichlorophenoxy)-3-ethoxy-5-methyl-1H-pyrazol-1-yl)-5-ethylpyrimidine]", "MIC50": "0.0005 to 0.05"}, {"compound": "CCc1cnc(-n2nc(OC(C)C)c(Oc3cc(F)ccc3F)c2C)nc1", "note": "[example 19, 2-(4-(2,5-difluorophenoxy)-3-isopropoxy-5-methyl-1H-pyrazol-1-yl)-5-ethylpyrimidine]", "MIC50": "0.0005 to 0.05"}, {"compound": "CCOc1nn(-c2ccc(C3CC3)cn2)c(C)c1Oc1cc(Cl)cc(Cl)c1", "note": "[example 96, 5-cyclopropyl-2-(4-(3,5-dichlorophenoxy)-3-ethoxy-5-methyl-1H-pyrazol-1-yl)pyridine]", "MIC50": "0.05 to 0.5"}, {"compound": "Cc1c(Oc2cc(F)ccc2F)c(OC(C)C)nn1-c1ccc(C2CC2)cn1", "note": "[example 18, 5-cyclopropyl-2-(4-(2,5-difluorophenoxy)-3-isopropoxy-5-methyl-1H-pyrazol-1-yl)pyridine]", "MIC50": "0.0005 to 0.05"}, {"compound": "Cc1c(Cc2ccccc2)c(OC(C)C)nn1-c1ccccn1", "note": "[example 165, 2-(4-benzyl-3-isopropoxy-5-methyl-1H-pyrazol-1-yl)pyridine]", "MIC50": "> 5"}, {"compound": "CCOc1nn(-c2ccc(C3CC3)cn2)c(C)c1Oc1cc(Cl)ccc1Cl", "note": "[example 95, 5-cyclopropyl-2-(4-(2,5-dichlorophenoxy)-3-ethoxy-5-methyl-1H-pyrazol-1-yl)pyridine]", "MIC50": "0.05 to 0.5"}, {"compound": "Cc1c(Oc2c(F)cccc2F)c(OC(C)C)nn1-c1ncc(C2CC2)cn1", "note": "[example 13, 5-cyclopropyl-2-(4-(2,6-difluorophenoxy)-3-isopropoxy-5-methyl-1H-pyrazol-1-yl)pyrimidine]", "MIC50": "0.0005 to 0.05"}, {"compound": "CCOc1nn(-c2ncc(Br)cc2F)c(C)c1Cc1ccccc1", "note": "[example 40, 2-(4-benzyl-3-ethoxy-5-methyl-1H-pyrazol-1-yl)-5-bromo-3-fluoropyridine]", "MIC50": "0.5 to 5"}, {"compound": "CCc1cnc(-n2nc(OCCCN(C)C)c(Cc3ccccc3)c2C)nc1", "note": "[example 140, 3-(4-benzyl-1-(5-ethylpyrimidin-2-yl)-5-methyl-1H-pyrazol-3-yloxy)-N,N-dimethylpropan-1-amine]", "MIC50": "0.5 to 5"}, {"compound": "CCOc1nn(-c2ncc(CC)cn2)c(C)c1Oc1ccccc1F", "note": "[example 73, 2-(3-ethoxy-4-(2-fluorophenoxy)-5-methyl-1H-pyrazol-1-yl)-5-ethylpyrimidine]", "MIC50": "0.05 to 0.5"}, {"compound": "CCOc1nn(-c2ccc(OC)cc2)cc1Cc1ccccc1", "note": "[example 164, 4-benzyl-3-ethoxy-1-(4-methoxyphenyl)-1H-pyrazole]", "MIC50": "> 5"}, {"compound": "CCc1cnc(-n2nc(OC(C)C)c(Oc3cccc(F)c3)c2C)nc1", "note": "[example 54, 5-ethyl-2-(4-(3-fluorophenoxy)-3-isopropoxy-5-methyl-1H-pyrazol-1-yl)pyrimidine]", "MIC50": "0.05 to 0.5"}, {"compound": "CCOc1c(Cc2ccccc2)c(C)nn1-c1ncc(CC)cn1", "note": "[example 26, 2-(4-benzyl-5-ethoxy-3-methyl-1H-pyrazol-1-yl)-5-ethylpyrimidine]", "MIC50": "0.5 to 5"}, {"compound": "Cc1c(Oc2c(O)cccc2F)c(OC(C)C)nn1-c1ncc(C2CC2)cc1O", "note": "[example 188, 5-cyclopropyl-2-(4-(2-fluoro-6-hydroxyphenoxy)-3-isopropoxy-5-methyl-1H-pyrazol-1-yl)pyridin-3-ol]", "MIC50": "0.0005 to 0.05"}, {"compound": "CCOc1nn(-c2ccc(C3CC3)cn2)c(C)c1-c1ccccc1", "note": "[example 161A, 5-cyclopropyl-2-(3-ethoxy-5-methyl-4-phenyl-1H-pyrazol-1-yl)pyridine]", "MIC50": "0.5 to 5"}, {"compound": "CCCc1cnc(-n2nc(OC(C)C)c(Oc3c(F)cccc3F)c2C)c(F)c1", "note": "[example 190A, 2-(4-(2,6-difluorophenoxy)-3-isopropoxy-5-methyl-1H-pyrazol-1-yl)-3-fluoro-5-propylpyridine]", "MIC50": "0.05 to 0.5"}, {"compound": "CC(C)Oc1nn(-c2ncc(C3CC3)cn2)cc1Sc1ccccc1", "note": "[example 104, 5-cyclopropyl-2-(3-isopropoxy-4-(phenylthio)-1H-pyrazol-1-yl)pyrimidine]", "MIC50": "0.0005 to 0.05"}, {"compound": "Cc1c(Cc2ccccc2)c(=O)n(-c2ncc(Br)cn2)n1-c1ncc(Br)cn1", "note": "[example 44, 4-benzyl-1,2-bis(5-bromopyrimidin-2-yl)-5-methyl-1H-pyrazol-3(2H)-one]", "MIC50": "0.5 to 5"}, {"compound": "CCN(CC)Cc1c(Cc2ccccc2)c(OC(C)C)nn1-c1ncc(C2CC2)cn1", "note": "[example 169, N-((4-benzyl-1-(5-cyclopropylpyrimidin-2-yl)-3-isopropoxy-1H-pyrazol-5-yl)methyl)-N-ethylethanamine]", "MIC50": "> 5"}, {"compound": "CCOc1nn(-c2ncc(CC)cn2)c(C)c1Cc1ccccc1", "note": "[example 25, 2-(4-benzyl-3-ethoxy-5-methyl-1H-pyrazol-1-yl)-5-ethylpyrimidine]", "MIC50": "0.0005 to 0.05"}, {"compound": "CCOc1nn(-c2ccc(C(C)(F)F)cn2)c(C)c1Cc1ccccc1", "note": "[example 99, 2-(4-benzyl-3-ethoxy-5-methyl-1H-pyrazol-1-yl)-5-(1,1-difluoroethyl)pyridine]", "MIC50": "0.5 to 5"}, {"compound": "CCOc1nn(-c2nccc(C)n2)c(C)c1Cc1ccccc1", "note": "[example 113, 2-(4-benzyl-3-ethoxy-5-methyl-1H-pyrazol-1-yl)-4-methylpyrimidine]", "MIC50": "0.5 to 5"}, {"compound": "CCOc1nn(-c2ncc(CC)cn2)c(C)c1Oc1ccccc1", "note": "[example 72, 2-(3-ethoxy-5-methyl-4-phenoxy-1H-pyrazol-1-yl)-5-ethylpyrimidine]", "MIC50": "0.5 to 5"}, {"compound": "CCc1cnc(-n2nc(OC(C)C)c(Cc3ccc(F)cc3)c2C)nc1", "note": "[example 24, 5-ethyl-2-(4-(4-fluorobenzyl)-3-isopropoxy-5-methyl-1H-pyrazol-1-yl)pyrimidine]", "MIC50": "0.0005 to 0.05"}, {"compound": "CCOc1nn(-c2ncc(Br)cn2)c(C)c1Cc1ccccc1", "note": "[example 42, 2-(4-benzyl-3-ethoxy-5-methyl-1H-pyrazol-1-yl)-5-bromopyrimidine]", "MIC50": "0.05 to 0.5"}, {"compound": "CCOc1nn(-c2ncc(OC)cn2)c(C)c1Cc1ccccc1", "note": "[example 112, 2-(4-benzyl-3-ethoxy-5-methyl-1H-pyrazol-1-yl)-5-methoxypyrimidine]", "MIC50": "0.5 to 5"}, {"compound": "Cc1nn(-c2ncc(C3CC3)cn2)c(OC(C)C)c1Cc1ccccc1", "note": "[example 22, 2-(4-benzyl-5-isopropoxy-3-methyl-1H-pyrazol-1-yl)-5-cyclopropylpyrimidine]", "MIC50": "0.05 to 0.5"}, {"compound": "CCOc1ccn(-c2ncc(CC)cn2)n1", "note": "[example 166, 2-(3-ethoxy-1H-pyrazol-1-yl)-5-ethylpyrimidine]", "MIC50": "0.5 to 5"}, {"compound": "CCOc1nn(-c2ccc(C(F)(F)F)cn2)c(C)c1Cc1ccccc1", "note": "[example 38, 2-(4-benzyl-3-ethoxy-5-methyl-1H-pyrazol-1-yl)-5-(trifluoromethyl)pyridine]", "MIC50": "0.5 to 5"}]}]}
